BindingDB's records for patent US12473263 (Icahn School Of Medicine At Mount Sinai, 2025)

molecular target: T1, Bromodomain-containing protein 4 [58-164] (Homo sapiens, UniProt O60885); assay: Fluorescence Anisotropy Binding Assay
T1 construct: 58-164
Experimental: Binding affinity of the newly synthesized compounds to the BRD4 BrD1 was assessed in a fluorescence anisotropy assay using a fluorescein isothiocyanate (FITC)-labeled MS417 as an assay probe (Zhang et al. 2008 op.cit.). Competition binding was performed with a BrD protein (0.25 to 1 μM) and the fluorescent probe (80 nM), and increasing concentration of unlabeled competing ligand in a PBS buffer (pH 7.4) in total volume of 80 μL. Measurements were obtained after 1 hour incubation of the fluorescent ligand and the protein at 25° C. with Safire 2 microplate reader (Tecan). In the assay, fluorescent ligand concentration was ≤2Kd, and protein concentration was set at which 50-80% of fluorescent ligand is bound. Dissociation constant of a competing ligand was calculated with the correction to Cheng-Prussoff equation introduced by Nicolovska-Coleska and colleagues [Nikolovska-Coleska, Z. et al., Anal Biochem 332, 261-273 (2004).

Row | Structure (SMILES) | Kd
1 | COc1ccc2c(c1)n(Cc1ccccc1C)c(=N)n2CC(O)c1ccc(Cl)c(Cl)c1 (stereo unspecified) [US12473263, Example 1] | 694 nM
2 | Cc1ccccc1Cn1c(=N)n(CC(O)c2ccc(Cl)c(Cl)c2)c2ccc(Cl)cc21 (stereo unspecified) [US12473263, Example 3] | 503 nM
3 | Cc1ccccc1Cc1cn(C[C@H](O)c2ccc(Cl)c(Cl)c2)c2ccccc12 [US12473263, Example 4] | 640 nM
4 | Cc1ccccc1Cn1cc(Cn2c(=N)n(CC(O)c3ccc(Cl)c(Cl)c3)c3ccccc32)nn1 (stereo unspecified) [US12473263, Example 7] | 551 nM
5 | Cc1cccc(Cn2cc(Cn3c(=N)n(CC(O)c4ccc(Cl)c(Cl)c4)c4ccccc43)nn2)c1 (stereo unspecified) [US12473263, Example 8] | 556 nM
6 | N=c1n(Cc2cn(Cc3cccc(F)c3)nn2)c2ccccc2n1CC(O)c1ccc(Cl)c(Cl)c1 (stereo unspecified) [US12473263, Example 11] | 548 nM
7 | N=c1n(Cc2cn(Cc3ccc(F)cc3)nn2)c2ccccc2n1CC(O)c1ccc(Cl)c(Cl)c1 (stereo unspecified) [US12473263, Example 12] | 3860 nM

The next molecules have a lower Kd than those just listed; values first:

Row | Kd | Structure (SMILES)
8 | 269 nM | Cc1ccccc1Cn1c(=N)n(CC(O)c2ccc(Cl)c(Cl)c2)c2ccc(F)cc21 (stereo unspecified) [US12473263, Example 2]
9 | 371 nM | N=c1n(Cc2cn(Cc3ccccc3F)nn2)c2ccccc2n1CC(O)c1ccc(Cl)c(Cl)c1 (stereo unspecified) [US12473263, Example 10]
10 | 65 nM | N=c1n(Cc2cn(-c3ccccc3)nn2)c2ccccc2n1CC(O)c1ccc(Cl)c(Cl)c1 (stereo unspecified) [US12473263, Example 13]
11 | 354 nM | N=c1n(Cc2cn(CCc3ccccc3)nn2)c2ccccc2n1CC(O)c1ccc(Cl)c(Cl)c1 (stereo unspecified) [US12473263, Example 15]
